These results are taken from US11738026B2, “Combination therapy comprising an ALK2 inhibitor and a JAK2 inhibitor” (INCYTE CORPORATION, priority 2019, dated 2023).

For the experiment, the system named is C57Bl/6 mice. Briefly: Turpentine-induced anemia in mice on low iron chow; complete blood counts. It is filed as in vivo. How it is done:
C57Bl/6 mice (7-8-week-old, female) were purchased from Charles River Laboratories, Wilmington, Mass., and placed on low iron chow (Test Diet #AIN-76A 5TJK) two weeks prior to beginning study. Mice were continued on this diet through the course of the study. Mice were injected subcutaneously in the intrascapular region of the back of the recipient mouse with sterile filtered turpentine (Aldrich, cat #24245), or sterile saline in a 100 ul volume every week for three weeks. Therapeutic agents were orally administered at a total volume of 10 mL/kg body weight. Mice were administered vehicle (0.5% DMAC: […]) or compound (n=10 per dose group) starting shortly after the first turpentine injection (day 0), and continuing every day until the study termination. Blood was collected via by orbital sinus once weekly, and complete blood counts (CBCs) were determined by hematology instrumentation (Abaxis, model HM5). Statistical analyses were performed using Graphpad Prism software. Mice were handled according to Incyte IACUC protocols.
Together these experiments indicate that ALK2 inhibition can reverse the decreases in RBC counts, hemoglobin, and hematocrit brought on by turpentine generated, inflammation induced anemia, and this anti-anemia efficacy from ALK2 inhibition is possible in the presence of ruxolitinib.

Setting [1] is: 30 mg/kg BID, day 21 post first turpentine injection, FIG. 2, change statistically significant by unpaired t-test.
[2] abbreviates: 100 mg/kg QD, 28 days post first turpentine injection, FIG. 1.
The mark [3] stands for this setting: mice also dosed with ruxolitinib (90 mg/kg BID), FIG. 2 (Compound A 30 mg/kg BID).

`Nc1ncc(-c2ccc([C@@]34C[C@@H]3CN(C3CCOCC3)C4)cc2)cc1C(=O)NC12CCC(O)(CC1)CC2` [Compound A, 2-amino-N-(4-hydroxybicyclo-[2.2.2]octan-1-yl)-5-(4-((1R,5S)-3-(tetrahydro-2H-pyran-4-yl)-3-azabicyclo-[3.1.0]hexan-1-yl)phenyl)nicotinamide]: under setting [1], the hematocrit entry is given as “the same trend was demonstrated”, the hemoglobin result is listed as “the same trend was demonstrated” and the “red blood cell count” value was “the same trend was demonstrated”. Besides, under setting [2], the hematocrit result was “levels similar to saline (non-turpentine induced anemia) control”, the hemoglobin result is “levels similar to saline (non-turpentine induced anemia) control” and the “red blood cell count” value was “levels similar to saline (non-turpentine induced anemia) control”. Further, the “anemia brought on by turpentine” value (100 mg/kg QD, oral, daily from day 0, turpentine s.c. weekly for three weeks) is “corrected the anemia brought on by turpentine”. For the same compound, under setting [3], the RBC entry is recorded as “significant increases”, the hematocrit levels entry is “significant increases” and the hemoglobin entry is recorded as “significant increases”.

Take `N#CC[C@H](C1CCCC1)n1cc(-c2ncnc3[nH]ccc23)cn1` [ruxolitinib, (R)-3-(4-(7H-pyrrolo[2,3-d]pyrimidin-4-yl)-1H-pyrazol-1-yl)-3-cyclopentylpropanenitrile, reference compound]: the “anemias brought on by turpentine injection” value (90 mg/kg BID, oral, in each experiment) is “exacerbated the anemias”.
